Test results taken from PubChem BioAssay (NCI).
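A five-concentration, 48-hour dose response in 96-well plates underlies each endpoint, interpolated linearly between surrounding concentrations. Abbreviation: GI50, concentration required for 50% inhibition of growth. TGI: concentration producing complete growth inhibition.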

What was measured:
Experiment in all cases: NCI anticancer screen, dose series, 48 h
[1] = system: UACC-257 melanoma
[2] = system: OVCAR-8 ovarian
[3] = system: CAKI-1 renal
[4] = system: MALME-3M melanoma
[5] = system: HL-60(TB) leukemia
[6] = system: UO-31 renal
[7] = system: HCC-2998 colon
[8] = system: CCRF-CEM leukemia
[9] = system: TK-10 renal
[10] = system: MCF7 breast
[11] = system: OVCAR-3 ovarian
[12] = system: MDA-MB-231 breast
[13] = system: NCI-H522 lung
[14] = system: HOP-62 NSCLC
[15] = system: NCI-H460 lung
[16] = system: SK-MEL-28 melanoma
[17] = system: HT29 colon
[18] = system: PC-3 prostate
[19] = system: SF-268 CNS
[20] = system: BT-549 breast
[21] = system: NCI/ADR-RES ovarian
[22] = system: ACHN renal
[23] = system: UACC-62 melanoma
[24] = system: K-562 leukemia
[25] = system: NCI-H23 lung
[26] = system: HCT-116 colon
[27] = system: SF-295 CNS
[28] = system: DU-145 prostate
[29] = system: M14 melanoma
[30] = system: OVCAR-5 ovarian

SMILES: COC(=O)c1c(C(=O)OC)c2ccc3c4ccccc4ccc3n2c1C(=O)C(C)Br (centres undefined)
- TGI [1]: > 100 µM
- GI50 [2]: 14.9 µM
- TGI [2]: > 100 µM
- GI50 [3]: 21.2 µM
- TGI [3]: > 100 µM
- GI50 [4]: 6.1 µM
- TGI [4]: 43 µM
- GI50 [5]: 5.39 µM
- TGI [5]: > 100 µM
- GI50 [6]: 24.9 µM
- TGI [6]: > 100 µM
- GI50 [7]: 39.9 µM
- TGI [7]: > 100 µM
- GI50 [8]: 3.92 µM
- TGI [8]: > 100 µM
- GI50 [9]: 76.3 µM
- TGI [9]: > 100 µM
- GI50 [10]: 4.58 µM
- TGI [10]: > 100 µM
- GI50 [11]: 16.9 µM
- TGI [11]: > 100 µM
- GI50 [12]: 4.72 µM
- TGI [12]: 35.8 µM
- GI50 [13]: 3.07 µM
- TGI [13]: 15.2 µM
- GI50 [14]: 33.1 µM
- TGI [14]: > 100 µM
- GI50 [15]: 17.8 µM
- TGI [15]: > 100 µM
- GI50 [16]: 25.7 µM
- TGI [16]: > 100 µM
- GI50 [17]: 20.6 µM
- TGI [17]: > 100 µM
- GI50 [18]: 17.8 µM
- TGI [18]: > 100 µM
- GI50 [19]: 34.4 µM
- TGI [19]: > 100 µM
- GI50 [20]: 6.18 µM
- TGI [20]: 40.2 µM
- GI50 [21]: 17.7 µM
- TGI [21]: > 100 µM
- GI50 [22]: 22.2 µM
- TGI [22]: > 100 µM
- GI50 [23]: 11.9 µM
- TGI [23]: > 100 µM
- GI50 [24]: 6.48 µM
- TGI [24]: > 100 µM
- GI50 [25]: 12.9 µM
- TGI [25]: > 100 µM
- GI50 [26]: 11 µM
- TGI [26]: > 100 µM
- GI50 [27]: 28.3 µM
- TGI [27]: > 100 µM
- GI50 [28]: > 100 µM
- TGI [28]: > 100 µM
- GI50 [29]: 31.3 µM
- TGI [29]: > 100 µM
- GI50 [30]: 22.5 µM
- TGI [30]: > 100 µM
